From patent US6534534B1, “Pharmaceutical composition active in reducing production of MCP-1 protein” (Aziende Chimiche Riunite Angelini Francesco A.C.R.A.F. …, priority 1997, dated 2003)
Read-outs that look alike come from different tables or passages of the source.

Experiments:
IL-8 = details: for IL-8: PBMC, LPS 100 ng/ml, 24 hours, supernatant
Method: (§1) The capability of bindarit to reduce production of MCP-1 by leucocytes (PBMC) stimulated by LPS was evaluated. White blood cells were isolated by centrifugation on a Ficoll gradient and then stimulated with LPS (100 ng/ml) for 24 hours in the presence or absence of scalar concentrations of bindarit. The supernatant fluid was collected at the end and levels of MCP-1 were measured by means of a specific immunoenzymatic test.

MCP-1 = details: for MCP-1: PBMC, LPS 100 ng/ml, 24 hours, supernatant
Method: as §1

mouse air pouch = details: for Exudate / Leucocytes: bindarit 0.5% in diet for 18 days
Method: The action of bindarit was studied in an experimental model in the mouse, the said model being characterized by production of MCP-1, cell infiltration and formation of exudate. Mice were fed ad libitum with a standard diet for rodents or with the same diet with addition of bindarit (0.5%) for 18 days. On the twelfth day, under ether anaesthesia, sterile air (5 ml) was injected under the dorsal skin of the mice to form a sac. On the fifteenth day, again under ether anaesthesia, further sterile air (5 ml) was injected into the pre-formed sac. On the eighteenth day, a sterile physiological solution (1 ml) was injected into the sac thus obtained, or an irritant (1 ml). The said irritant was carrageen (1%) or IL-1 (40 ng). After 5 hours for IL-1, or 24 hours for carrageen, the mice were sacrificed by asphyxia with CO2. The exudate which had developed was collected and used for the leucocyte count and for measurement of the mediators produced.

[1] = IL-1, share of cells in exudate, bindarit 0.5% in diet

SMILES: CC(C)(OCc1nn(Cc2ccccc2)c2ccccc12)C(=O)O [Bindarit]
- IL-8 (IL-8; bindarit 25 μg/ml): 30 ± 5.20 ng/mL
- IL-8 (IL-8; bindarit 50 μg/ml): 37 ± 5.36 ng/mL
- IL-8 (IL-8; bindarit 100 μg/ml): 27 ± 5.8 ng/mL
- levels of IL-8 produced (in words) (IL-8; summary of Table 1): without substantially influencing
- MCP-1 (MCP-1; bindarit 25 μg/ml): 1.5 ± 0.38 ng/mL
- MCP-1 (MCP-1; bindarit 50 μg/ml): 1.6 ± 0.18 ng/mL
- MCP-1 (MCP-1; bindarit 100 μg/ml): 0.8 ± 0.04 ng/mL
- production of MCP-1 induced by LPS (in words) (MCP-1; summary of Table 1): significantly reduces
- Exudate (mouse air pouch; IL-1 (40 ng), 5 hours): 1.00 ± 0.01 mL
- Leucocytes (mouse air pouch; IL-1 (40 ng), 5 hours): 7.5 ± 2.21
- Monocytes (mouse air pouch; [1]): 6%
- Polymorphonucleates (mouse air pouch; [1]): 94%
- Exudate (mouse air pouch; carrageen (1%), 24 hours): 0.90 ± 0.08 mL
- Leucocytes (mouse air pouch; carrageen (1%), 24 hours): 4.5 ± 0.64
- number of infiltrated cells (leucocytes) (in words) (mouse air pouch; summary of Table 2): significant reduction
- volume of exudate collected (in words) (mouse air pouch; summary of Table 2): without presenting a reduction
- percentage of monocytes attracted in the sac (in words) (mouse air pouch; summary of Table 3): reduction
